The text below walks through data of BindingDB's records for doi:10.1016/j.bioorg.2016.07.007 (Jamia Hamdard (Hamdard University), 2016).

The target of the assay is Glycogen synthase kinase-3 beta (Homo sapiens, UniProt P49841). The experiment in a line: GSK-3β activity assay.
Glycogen synthase kinase-3 beta, sequence (P49841 whole entry): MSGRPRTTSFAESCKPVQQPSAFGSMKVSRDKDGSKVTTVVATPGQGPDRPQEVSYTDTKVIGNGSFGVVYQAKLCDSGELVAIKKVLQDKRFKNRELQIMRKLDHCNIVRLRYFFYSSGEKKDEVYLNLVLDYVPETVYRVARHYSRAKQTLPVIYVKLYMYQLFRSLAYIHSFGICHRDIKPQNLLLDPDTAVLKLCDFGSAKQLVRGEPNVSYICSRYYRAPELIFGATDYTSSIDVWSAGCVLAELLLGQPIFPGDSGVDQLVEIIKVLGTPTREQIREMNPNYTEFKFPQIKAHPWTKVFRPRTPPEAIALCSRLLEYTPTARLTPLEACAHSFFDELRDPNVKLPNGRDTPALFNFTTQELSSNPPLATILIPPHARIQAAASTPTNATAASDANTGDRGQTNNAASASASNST
Protocol: In a typical assay, 10 µL of test compound of different concentrations (dissolved in dimethyl sulfoxide [DMSO] and diluted with assay buffer) and 10 µL (20 ng) of enzyme were added to each well followed by 20 µL of assay buffer containing 25 µM substrate and 1 µM ATP. The final DMSO concentration in the reaction mixturewas less than 1%. After incubation at 30 °C for 30 min, the enzymatic reaction was quenched with 40 µL of Kinase-Glo reagent. Luminescence was recorded after 10 min using Infinite F200 PRO multimode reader (Tecan).
As to `Cn1c(SCc2cn(-c3ccc(Br)cc3)nn2)nc(-c2ccccc2)cc1=O` [Pyrimidin-4-one-1,2,3-triazole conjugate, 3a], half-maximal inhibition (IC50) was put at 744 nM.
For the molecule `Cn1c(SCc2cn(-c3ccc(F)cc3)nn2)nc(-c2ccccc2)cc1=O` [Pyrimidin-4-one-1,2,3-triazole conjugate, 3b], the IC50 worked out at 200 nM.
`Cn1c(SCc2cn(-c3ccccc3Br)nn2)nc(-c2ccccc2)cc1=O` [Pyrimidin-4-one-1,2,3-triazole conjugate, 3c] displayed an IC50 of 437 nM.
`Cc1ccccc1-n1cc(CSc2nc(-c3ccccc3)cc(=O)n2C)nn1` [Pyrimidin-4-one-1,2,3-triazole conjugate, 3d] had a 50% inhibitory concentration (IC50) of 302 nM.
As to `Cn1c(SCc2cn(-c3ccccc3)nn2)nc(-c2ccccc2)cc1=O` [Pyrimidin-4-one-1,2,3-triazole conjugate, 3e], the IC50 was 916 nM.
Then `Cn1c(SCc2cn(-c3ccc(C(C)(C)C)cc3)nn2)nc(-c2ccccc2)cc1=O` [Pyrimidin-4-one-1,2,3-triazole conjugate, 3f], with 1340 nM; and `CCc1ccc(-n2cc(CSc3nc(-c4ccccc4)cc(=O)n3C)nn2)cc1` [Pyrimidin-4-one-1,2,3-triazole conjugate, 3g], with 94 nM.
`CCOc1ccc(-n2cc(CSc3nc(-c4ccccc4)cc(=O)n3C)nn2)cc1` [Pyrimidin-4-one-1,2,3-triazole conjugate, 3h]: the IC50 came out at 1440 nM.
For the molecule `COc1ccccc1-n1cc(CSc2nc(-c3ccccc3)cc(=O)n2C)nn1` [Pyrimidin-4-one-1,2,3-triazole conjugate, 3i], it took 1310 nM to reach half-maximal inhibition (IC50).
`Cn1c(SCc2cn(-c3ccccc3F)nn2)nc(-c2ccccc2)cc1=O` [Pyrimidin-4-one-1,2,3-triazole conjugate, 3j]: the IC50 was 122 nM.
For `Cn1c(SCc2cn(-c3cccc(Cl)c3)nn2)nc(-c2ccccc2)cc1=O` [Pyrimidin-4-one-1,2,3-triazole conjugate, 3k], the concentration for half-maximal inhibition (IC50) worked out at 502 nM.
`Cn1c(SCc2cn(-c3cccnc3)nn2)nc(-c2ccccc2)cc1=O` [Pyrimidin-4-one-1,2,3-triazole conjugate, 3l]: 1740 nM corresponded to half-maximal inhibition (IC50).
The molecule `Cn1c(SCc2cn(-c3ccccc3Cl)nn2)nc(-c2ccccc2)cc1=O` [Pyrimidin-4-one-1,2,3-triazole conjugate, 3m] yielded an IC50 of 577 nM.
Molecule `Cc1ccc(-n2cc(CSc3nc(-c4ccccc4)cc(=O)n3C)nn2)cc1C` [Pyrimidin-4-one-1,2,3-triazole conjugate, 3n] had an IC50 of 82 nM.
`COc1ccc(-n2cc(CSc3nc(-c4ccccc4)cc(=O)n3C)nn2)cc1` [Pyrimidin-4-one-1,2,3-triazole conjugate, 3o] had an IC50 of 1140 nM.
The molecule `Cn1c(SCc2cn(-c3ccc(Cl)cc3)nn2)nc(-c2ccccc2)cc1=O` [Pyrimidin-4-one-1,2,3-triazole conjugate, 3p] showed an IC50 of 1560 nM.
For the molecule `Cn1c(SCc2cn(-c3ccc([N+](=O)[O-])cc3)nn2)nc(-c2ccccc2)cc1=O` [Pyrimidin-4-one-1,2,3-triazole conjugate, 3q], the IC50 came to 587 nM.
`Cn1c(SCc2cn(-c3cccc([N+](=O)[O-])c3)nn2)nc(-c2ccccc2)cc1=O` [Pyrimidin-4-one-1,2,3-triazole conjugate, 3r]: it took 153 nM to reach half-maximal inhibition (IC50).
